Key:
[1] = biological target: T1, RORγt (Homo sapiens, UniProt P51449); experiment: Jurkat Reporter Test (human IL-17 ROR response element luciferase, RORγt vector); format: cell-based; conditions: luminescence level inhibitory rate at test compound 3 μM, Jurkat cells; read-out: inhibitory rate (%)
T1 sequence (P51449 1-497 isoform P51449-2): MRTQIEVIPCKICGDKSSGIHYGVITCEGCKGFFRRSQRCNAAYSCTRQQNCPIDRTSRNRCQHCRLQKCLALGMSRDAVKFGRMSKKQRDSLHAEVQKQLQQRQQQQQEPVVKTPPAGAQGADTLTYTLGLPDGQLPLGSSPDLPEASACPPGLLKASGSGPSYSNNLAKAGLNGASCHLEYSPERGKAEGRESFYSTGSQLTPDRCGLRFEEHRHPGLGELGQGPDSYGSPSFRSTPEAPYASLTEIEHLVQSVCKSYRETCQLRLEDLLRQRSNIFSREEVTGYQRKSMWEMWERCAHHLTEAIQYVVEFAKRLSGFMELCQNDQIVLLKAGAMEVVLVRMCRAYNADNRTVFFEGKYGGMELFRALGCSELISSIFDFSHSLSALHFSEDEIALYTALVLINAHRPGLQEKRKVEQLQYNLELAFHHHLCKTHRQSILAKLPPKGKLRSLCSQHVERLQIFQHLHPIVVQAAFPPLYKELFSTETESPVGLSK
Method: The Jurkat cells used for the reporter test were cultured in a culture medium (RPMI (Invitrogen), 10% FCS (AusGeneX), 100 U/mL penicillin, 100 μg/mL streptomycin). On the day of the test, 4×10^7 cells were recovered by a centrifugal operation (1000 rpm, 5 min.) and suspended in PBS (phosphate buffered saline) (Invitrogen). Thereafter, the cells were recovered again by a centrifugal operation, and suspended in 2 mL of R buffer (NEON transfection kit, Invitrogen). […] Gene transfer was performed by Electroporation apparatus (NEON, Invitrogen) under the conditions of pulse voltage 1350 V, interval 10 milliseconds, number of times 3. The cells after gene transfer were suspended in 40 mL of a reaction medium (RPMI, 10% Lipid reduced FCS (HyClone), 10 mM HEPES (pH 7.5), 100 U/mL penicillin, 100 μg/mL streptomycin, 5 μM lovastatin), and plated in a 96 well plate by 90 μL each. A test compound diluted with the reaction medium was added by 10 μL each, and the cells were cultured overnight in an incubator. Bright-Glo (Promega) was added by 100 μL each, and the mixture was stirred at room temperature for 10 min, and the luminescence level was measured by Envision (PerkinElmer).

[2] = test system: Th17 cells; experiment: Mouse Th17 Cell Differentiation Test (IL-17A in culture supernatant, ELISA); format: cell-based; conditions: 96 h, inhibitory rate at 10 μM of test compound, mouse CD4 positive naive T cells, 4 days, IL-17A by ELISA
Method: CD4 positive naive T cells were collected from the spleen cells of BALB/c mice (female, 8-11w, Charles River Laboratories Japan, Inc.) using CD4+CD62L+ T Cell Isolation kit II (Miltenyi Biotec). The CD4 positive naive T cells in a 96 well plate (3×10^5 cells/well) were stimulated (37° C. for culture) with anti-mouse CD3ε antibody (Bio X cell) (10 μg/mL, solid phase) and anti-CD28 antibody (Bio X cell) (5 μg/mL) for 4 days in the presence of anti-IFN-γ antibody (BioLegend), anti-IL-4 antibody (BioLegend), anti-IL-2 antibody (BioLegend), IL-6, TGF-β and IL-23 to differentiate into Th17 cells. The compound was dissolved in DMSO and then added thereto. The cells were cultured under these conditions for 4 days, and differentiation of the Th17 cells was evaluated by using the concentration of IL-17A, which was measured by ELISA, in the culture supernatant obtained by centrifugation.

[3] = test system: Th17 cells; experiment: Human Th17 Cell Differentiation Test (IL-17A in culture supernatant, ELISA); format: cell-based; conditions: 144 h; inhibitory rate at 10 μM of test compound; human CD4 positive naive T cells, 6 days, IL-17A by ELISA
Method: CD4 positive naive T cells were isolated from peripheral blood mononuclear cells (PBMC) collected from human peripheral blood by a density gradient centrifugation method. The CD4 positive naive T cells were seeded in a 96 well plate (2×10^4 cells/well), and stimulated (37° C. for culture) with anti-CD 3/28Ab Dynabeads (Invitrogen) for 6 days in the presence of IL-1β, IL-6, IL-23, TGFβ, anti-IFNγ Ab (BioLegend) and anti-IL-4 Ab (BioLegend) to differentiate into Th17 cells. The compound was dissolved in DMSO and then added thereto. After culture for 6 days, the concentration of IL-17A in the culture supernatant obtained by centrifugation was measured by ELISA to evaluate differentiation of the Th17 cells.

[4] = test system: human PBMC; experiment: IL17 Production Test in Human PBMC; format: cell-based; conditions: 72 h, inhibitory rate at 10 μM of test compound, anti-CD3/CD28 stimulation, 3 days, IL-17A by ELISA
Method: Peripheral blood mononuclear cells (PBMC) collected from human peripheral blood by a density gradient centrifugation method were stimulated by Dynabeads (registered trade mark; anti-CD3/CD28 antibody) and cultured at 37° C. for 3 days. The compound was dissolved in DMSO and then added thereto. After culture for 3 days under such conditions, the concentration of IL-17A in the culture supernatant obtained by centrifugation was measured by ELISA to evaluate the effect of the compound on IL-17 production.

[5] = biological target: T1, RORγt; experiment: RORγt Binding Test (TR-FRET, fluorescent-labeled cholesterol); parameters: histidine tag (implied by the Histidine Detection Kit); conditions: binding inhibitory rate of fluorescent-labeled cholesterol to RORγt at test compound 1 μM
Method: The binding activity of the test compound to RORγt was measured by a time resolved fluorescence resonance energy transfer method (TR-FRET) utilizing histidine-tagged RORγt, fluorescent-labeled cholesterol (BODIPY-cholesterol, AVIVA) and terbium-labeled anti-histidine tag antibody (Invitrogen). First, a test compound diluted with an assay buffer (20 mM Tris-HCl (pH 7.5), 100 mM NaCl, 1 mM DTT, 0.1% BSA) was added to a 384 well plate by 3 μL each. Then, RORγt diluted with an assay buffer to 240 nM was added by 3 μL each, after which fluorescent-labeled cholesterol diluted with the assay buffer to 12 μM was added by 3 μL each, and the mixture was stood at room temperature for 20 min. Thereafter, a terbium-labeled anti-histidine tag antibody diluted with the assay buffer to 8 nM was added by 3 μL each. The mixture was stood at room temperature for 20 min, and fluorescence intensity (excitation wavelength 320 nm, fluorescence wavelength 520 nm, delay time 100 microseconds) was measured by Envision (PerkinElmer).

[6] = biological target: T1, RORγt; experiment: Cofactor Recruitment Test (Alpha Screen, biotinylated SRC-1 peptide); format: biochemical; parameters: histidine tag (implied by the Histidine Detection Kit); conditions: signal value inhibitory rate at test compound 1 μM
Method: Cofactor recruitment test was performed by Alpha Screen (Histidine Detection Kit, PerkinElmer) method. First, a test compound diluted with an assay buffer (50 mM Tris-HCl (pH 7.5), 50 mM KCl, 1 mM DTT, 0.1% BSA) was added to a 384 well plate by 5 μL each. […] The mixture was stood in a dark place for 1 hr, and the signal value was measured by Envision (PerkinElmer).

Row | SMILES | inhibition at 3 µM [1] [%] | inhibition at 1 µM [5] [%] | inhibition at 1 µM [6] [%] | inhibition at 10 µM [2] [%] | inhibition at 10 µM [3] [%] | inhibition at 10 µM [4] [%] | inhibition at 10 µM ([2]; Mus musculus, CD4 positive) [%]
1 | CCn1c2ccccc2c2cc(NC(=O)CCCC(=O)Nc3ccc(C#N)cc3)ccc21 [Example 16, N-(4-cyanophenyl)-N′-(9-ethyl-9H-carbazol-3-yl)pentanediamide] |  |  |  |  | 96.2 | 91 | 96
2 | CCn1c2ccccc2c2cc(NC(=O)CC(C)CC(=O)Nc3ccc(C#N)c(C(F)(F)F)c3)ccc21 (stereo not drawn) [Example 18, N-[4-cyano-3-(trifluoromethyl)phenyl]-N′-(9-ethyl-9H-carbazol-3-yl)-3-methylpentanediamide] |  |  |  |  | 98.5 | 96 | 95.8
3 | CCn1c(C)c(C)c2cc(NC(=O)CC(C)CC(=O)Nc3ccc(C#N)cc3)ccc21 (stereo not drawn) [Example 3, N-(4-cyanophenyl)-N′-(1-ethyl-2,3-dimethyl-1H-indol-5-yl)-3-methylpentanediamide] | 82.6 | 88.2 | 99.7 | 97.1 | 80 | 73.3 | 
4 | CCn1c2c(c3cc(NC(=O)CC(C)CC(=O)Nc4ccc(C#N)cc4)ccc31)CCCC2 (stereo not drawn) [Example 4, N-(4-cyanophenyl)-N′-(9-ethyl-2,3,4,9-tetrahydro-1H-carbazol-6-yl)-3-methylpentanediamide] |  |  |  |  | 100 | 88.3 | 97

The next lines start with results.

Row | inhibition at 3 µM [1] [%] | inhibition at 1 µM [5] [%] | inhibition at 1 µM [6] [%] | SMILES | inhibition at 10 µM [2] [%] | inhibition at 10 µM [3] [%] | inhibition at 10 µM [4] [%] | inhibition at 10 µM ([2]; Mus musculus, CD4 positive) [%]
5 | 102 | 98.7 | 101 | CC(C)Cn1c2c(c3cc(NC(=O)CC(C)CC(=O)Nc4ccc(C#N)cc4)ccc31)CCCC2 (stereo not drawn) [Example 20, N-(4-cyanophenyl)-3-methyl-N′-[9-(2-methylpropyl)-2,3,4,9-tetrahydro-1H-carbazol-6-yl]pentanediamide] | 95.8 | 89.9 | 84 | 
6 | 103 | 98.9 | 101 | CCCn1c2c(c3cc(NC(=O)CC(C)CC(=O)Nc4ccc(C#N)cc4)ccc31)CCCC2 (stereo not drawn) [Example 19, N-(4-cyanophenyl)-3-methyl-N′-(9-propyl-2,3,4,9-tetrahydro-1H-carbazol-6-yl)pentanediamide] | 95.8 | 95.2 | 87 | 
7 | 92.5 | 94.4 | 100 | CCn1c2ccccc2c2cc(NC(=O)CC(C)(O)CCOc3ccc(C#N)c(Cl)c3)ccc21 (stereo not drawn) [Example 30, 5-(3-chloro-4-cyanophenoxy)-N-(9-ethyl-9H-carbazol-3-yl)-3-hydroxy-3-methylpentanamide] | 96.1 | 100 | 100 | 

From patent US9120776B2, “Condensed heterocyclic compound” (Takeda Pharmaceutical Company Limited, priority 2011, dated 2015)
